The values that follow come from patent publication EP4782449A1, “TRICYCLIC PYRIDINE COMPOUND ACTING AS SARM1 ENZYME ACTIVITY INHIBITOR, AND USE THEREOF” (Artivila (ShenZhen) Innovation Center, Ltd., priority 2023, dated 2025).

Structures are written as SMILES.

Experiment [1] concerns dorsal root ganglion explants. The experiment is described as follows: Axonal Wallerian degeneration assay in mouse DRG explant culture. The experiment is classed as cell-based, C57BL/6 male mice. The conditions noted are these: 10 µM test compound, 2 hours pretreatment, axons transected, images at 0 hour and 24 hours. In short, it runs like this: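 Explants from 2-month-old male C57BL/6 mouse DRG were cultured 8 days in Neurobasal/B-27 with 10 ng/mL NGF. They were pretreated 2 h with 10 µM compound at 37°C, then axons were transected with a glass electrode. Axonal integrity was scored by script from bright-field images at 0 and 24 h.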

The target of the next experiment is T1, SARM1 (Homo sapiens, UniProt Q6SZW1).
T1 construct: inventors produced full-length SARM1 for NAD enzyme activity experiments, and used it for screening; His (C); made in house; host or cells: HEK293 cells, transient transfection; supernatant of digitonin lysate, no further purification described
T1 sequence (Q6SZW1 28-724): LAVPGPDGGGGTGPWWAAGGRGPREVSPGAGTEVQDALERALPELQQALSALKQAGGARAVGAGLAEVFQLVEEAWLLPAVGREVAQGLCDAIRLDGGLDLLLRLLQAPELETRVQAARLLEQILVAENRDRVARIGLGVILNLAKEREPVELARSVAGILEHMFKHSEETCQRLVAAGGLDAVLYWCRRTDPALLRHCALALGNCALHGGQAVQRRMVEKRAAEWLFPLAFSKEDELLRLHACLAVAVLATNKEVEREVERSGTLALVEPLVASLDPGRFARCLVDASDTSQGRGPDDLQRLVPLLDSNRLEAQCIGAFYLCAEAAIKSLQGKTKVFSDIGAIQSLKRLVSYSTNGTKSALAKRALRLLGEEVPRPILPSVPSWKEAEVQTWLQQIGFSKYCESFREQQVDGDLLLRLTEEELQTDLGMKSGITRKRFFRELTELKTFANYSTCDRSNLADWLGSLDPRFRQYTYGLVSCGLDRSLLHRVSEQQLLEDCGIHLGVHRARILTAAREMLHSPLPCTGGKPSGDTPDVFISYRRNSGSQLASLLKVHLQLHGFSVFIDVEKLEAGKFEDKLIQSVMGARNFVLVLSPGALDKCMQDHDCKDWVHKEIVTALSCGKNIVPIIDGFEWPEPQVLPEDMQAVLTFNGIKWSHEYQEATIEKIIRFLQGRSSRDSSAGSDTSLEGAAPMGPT
The experiment is described as follows: In vitro biochemical assay for inhibiting SARM1 enzyme activity (PC6 fluorescence, NADase). The following applies: full-length SARM1 from transfected HEK293 cells; 50 µM NAD, 50 µM PC6, 50 µM NMN activator; room temperature, 30 minutes; read-out: IC50. In short, it runs like this: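 Lysate supernatant from HEK293 cells transfected 48 hours with His-tagged SARM1 was obtained by 100 μM digitonin lysis and preincubated with inhibitor 10 minutes at room temperature.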

In the case of `CN1Cc2cnccc2-c2ccc(NC(=O)CCc3ccc(F)cc3)cc2C1` [Compound 134], the “Degree of Protection Against Axonal Wallerian Degeneration” value (from here on “Degree”) in experiment [1] is reported as “B (partial protection (B): 20% to 50%)”. In addition, on SARM1, the IC50 was in the range of 100 to 1000 nM.

In the case of `N#Cc1ccc(CNC(=O)Nc2ccc3c(c2)COc2cnccc2-3)cc1` [Compound 70], in experiment [1], the “Degree” value is “B (partial protection (B): 20% to 50%)”. The IC50 at SARM1 was 1000 to 10000 nM.

On to `O=C(CCc1ccc(Cl)s1)Nc1ccc2c(c1)COc1cnccc1-2` [Compound 36], for which the “Degree” value in experiment [1] is recorded as “A (substantial protection (A) >50%)”. The IC50 on SARM1 fell in the range of 1000 to 10000 nM.

In the case of `O=C(NCc1ccc(F)cc1)Nc1cnc2c(c1)COc1cnccc1-2` [Compound 101, 1-(4-fluorobenzyl)-3-(5H-pyrano[4,5-b:2,3-c']dipyridin-3-yl)urea], in experiment [1], the “Degree” value is “A (substantial protection (A) >50%)”. For the same compound, at SARM1, the IC50 was under 100 nM.

For the compound `N#Cc1ccc(CC2CCN(c3ccc4c(c3)COc3cnccc3-4)C2=O)cc1` (stereo not shown) [Compound 16], the “Degree” value in experiment [1] is “A (substantial protection (A) >50%)”. Also, the 50% inhibitory concentration (IC50) at SARM1 was in the range of 1000 to 10000 nM.

Turning to `O=C(CCc1ccc(F)cc1)Nc1ccc2c(c1)COc1cncc(Cl)c1-2` [Compound 140], in experiment [1], the “Degree” value is on record as “B (partial protection (B): 20% to 50%)”. In addition, the concentration for half-maximal inhibition (IC50) at SARM1 is 100 to 1000 nM.

`O=C(CCc1cccc(F)c1)Nc1cnc2c(c1)COc1cnccc1-2` [Compound 94]: the “Degree” value in experiment [1] is reported as “A (substantial protection (A) >50%)”. On SARM1, the 50% inhibitory concentration (IC50) was under 100 nM.

For `O=C(CCc1ccc(F)cc1)Nc1cc2c(cn1)-c1ccncc1OC2` [Compound 112, 3-(4-fluorophenyl)-N-(5H-pyrano[2,3-c:4,5-c']dipyridin-3-yl)propanamide], the “Degree” value in experiment [1] was “A (substantial protection (A) >50%)”. The half-maximal inhibitory concentration (IC50) on SARM1 is under 100 nM.

With `N#Cc1ccc(CCC(=O)Nc2ccc3c(c2)COc2cnccc2-3)cc1` [Compound 33], in experiment [1], the “Degree” value is listed as “A (substantial protection (A) >50%)”. The IC50 at SARM1 is under 100 nM.

Take `O=C(NCc1ccc(Cl)c(F)c1)Nc1ccc2c(c1)COc1cnccc1-2` [Compound 68]: the “Degree” value in experiment [1] is given as “A (substantial protection (A) >50%)”. Besides, on SARM1, the IC50 was 100 to 1000 nM.

`O=C(CCc1ccc(F)cc1)Nc1ccc2c(c1)COc1cnccc1-2` [Compound 29, 3-(4-fluorophenyl)-N-(6H-isochromeno[3,4-c]pyridin-8-yl)propanamide]: the “Degree” value in experiment [1] is “A (substantial protection (A) >50%)”. The 50% inhibitory concentration (IC50) on SARM1 was under 100 nM.

By IC50 is commonly meant the concentration needed to halve the response being measured.
